Among the test systems are DU-145 prostate; HL-60(TB) leukemia; UACC-62 melanoma; SF-539 CNS; HOP-92 NSCLC; HCT-116 colon; BT-549 breast; SK-MEL-28 melanoma; CAKI-1 renal; MALME-3M melanoma.
What all share (test): NCI-60 cell line screen, 48 h

Several values for one entry are separate records, joined by “and”; a condition that tells them apart may be missing. Identical values can stand only once.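 How tested: cells in 96-well plates exposed to compound for 48 hours at five concentrations. At the GI50, growth is halved. TGI marks complete inhibition of growth.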

For `COC(=O)[C@]1(C)CC[C@]2(C)CC[C@]3(C)C(=CC(=O)[C@@H]4[C@@]5(C)CCC(=O)NC(C)(C)[C@@H]5CC[C@]43C)[C@@H]2C1`, the GI50 in the assay with DU-145 prostate is 20.9 µM; in the assay with HL-60(TB) leukemia, 16.2 µM; with UACC-62 melanoma, 15.3 µM; in the assay with SF-539 CNS it was 14.6 µM; in the assay with HOP-92 NSCLC it was 10.7 µM; with HCT-116 colon, 10.8 µM. The GI50 was 12.8 µM in the assay with BT-549 breast, 18.5 µM in the assay on SK-MEL-28 melanoma, 35.9 µM in the assay with CAKI-1 renal and 18.3 µM with MALME-3M melanoma. In addition, the TGI in the assay on DU-145 prostate stood at 89.6 µM; in the assay on HL-60(TB) leukemia it was 41.6 µM; in the assay on UACC-62 melanoma it was 38.2 µM; in the assay with SF-539 CNS, 28.6 µM; with HOP-92 NSCLC, 24.2 µM; in the assay with HCT-116 colon, 25.6 µM. Besides, the TGI in the assay on BT-549 breast is 28 µM; in the assay on SK-MEL-28 melanoma, 36.5 µM; in the assay on CAKI-1 renal it was above 100 µM; in the assay with MALME-3M melanoma, 38 µM.

Regarding `CC(=O)N1c2ccc(-c3ccc(C(=O)O)cc3)cc2[C@H](Nc2ccc(Cl)cc2)C[C@@H]1C`, the GI50 in the assay on DU-145 prostate is 12.1 µM; in the assay on HL-60(TB) leukemia, 0.0384 µM; in the assay on UACC-62 melanoma, 0.0261 µM; with SF-539 CNS, 0.0622 µM; with HOP-92 NSCLC it was 0.024 µM; in the assay with HCT-116 colon it was 0.266 µM. Besides, the GI50 was 1.27 µM in the assay on BT-549 breast, 0.494 µM in the assay on SK-MEL-28 melanoma, 0.0457 µM in the assay on CAKI-1 renal and 0.168 µM in the assay with MALME-3M melanoma. Further, the TGI in the assay on DU-145 prostate was above 100 µM; in the assay on HL-60(TB) leukemia it was 11.1 µM; in the assay with UACC-62 melanoma, 11.5 µM; with SF-539 CNS, 20.2 µM; in the assay on HOP-92 NSCLC, 13.3 µM; with HCT-116 colon, 15.2 µM. In addition, the TGI in the assay with BT-549 breast was 29.6 µM; in the assay with SK-MEL-28 melanoma, 34.8 µM; with CAKI-1 renal it was above 100 µM; with MALME-3M melanoma it was 3.64 µM.

As for `CC(=O)Nc1cc(CN2CCCCC2)c(O)c2ncccc12`, the TGI was 75.7 µM in the assay on DU-145 prostate; 36.8 µM in the assay on HL-60(TB) leukemia; 46.3 µM with UACC-62 melanoma; above 100 µM in the assay on SF-539 CNS; above 100 µM in the assay on HOP-92 NSCLC; 75.9 µM in the assay on HCT-116 colon. For the same molecule, the TGI in the assay with BT-549 breast is above 100 µM; in the assay on SK-MEL-28 melanoma it was above 100 µM; with CAKI-1 renal it was above 100 µM; in the assay on MALME-3M melanoma, 69.4 µM.

For the molecule `NC(N)=NC(N)=NCc1ccco1`, the GI50 in the assay on DU-145 prostate is above 1250 µM; in the assay on HL-60(TB) leukemia, 390 µM; in the assay with UACC-62 melanoma, 748 µM; in the assay on SF-539 CNS it was above 1250 µM; in the assay on HOP-92 NSCLC, 116 µM; in the assay with HCT-116 colon it was 508 µM and 492 µM. Besides, the GI50 is 336 µM and 974 µM in the assay with BT-549 breast; above 1250 µM in the assay with SK-MEL-28 melanoma; 758 µM in the assay with CAKI-1 renal; 741 µM with MALME-3M melanoma. Besides, the TGI with DU-145 prostate, with HL-60(TB) leukemia, with UACC-62 melanoma, in the assay with SF-539 CNS, in the assay with HCT-116 colon and in the assay on BT-549 breast was above 1250 µM in each case. In addition, the TGI in the assay on SK-MEL-28 melanoma, in the assay with CAKI-1 renal and with MALME-3M melanoma was above 1250 µM each time.

Consider `CC1CC2(C)CC(=O)C1C1C(=O)N(CCN3CCOCC3)C(=O)C12` (centres undefined), for which the GI50 with DU-145 prostate, in the assay on HL-60(TB) leukemia, in the assay on UACC-62 melanoma, in the assay on SF-539 CNS, with HOP-92 NSCLC and in the assay on HCT-116 colon was above 100 µM in each case. Also, the GI50 in the assay with BT-549 breast, in the assay with SK-MEL-28 melanoma, with CAKI-1 renal and with MALME-3M melanoma was above 100 µM throughout. Further, the TGI in the assay on DU-145 prostate, in the assay with HL-60(TB) leukemia, with UACC-62 melanoma, in the assay on SF-539 CNS, with HOP-92 NSCLC and with HCT-116 colon was above 100 µM each time. The TGI in the assay on BT-549 breast, with SK-MEL-28 melanoma, in the assay with CAKI-1 renal and in the assay on MALME-3M melanoma was above 100 µM each time.

As to `COC(=O)CCc1c(/C=C2\N=C(c3ccc[nH]3)C=C2OC)[nH]c(C)c1C(=O)OCc1ccccc1`, the GI50 with DU-145 prostate was 0.345 µM; in the assay with HL-60(TB) leukemia, 0.446 µM; in the assay with UACC-62 melanoma, 0.216 µM; in the assay with SF-539 CNS, 0.363 µM; in the assay on HOP-92 NSCLC it was 0.197 µM; with HCT-116 colon it was 0.122 µM. For the same molecule, the GI50 was 0.335 µM with BT-549 breast, 0.503 µM with SK-MEL-28 melanoma, 0.272 µM in the assay on CAKI-1 renal and 0.638 µM with MALME-3M melanoma. The TGI with DU-145 prostate was above 55.6 µM; in the assay on HL-60(TB) leukemia, 2.42 µM; in the assay on UACC-62 melanoma, 0.491 µM; in the assay on SF-539 CNS, 1.83 µM; in the assay with HOP-92 NSCLC, 0.73 µM; with HCT-116 colon, 1.07 µM. For the same molecule, the TGI in the assay with BT-549 breast turned out to be 2.57 µM; in the assay with SK-MEL-28 melanoma, 2.3 µM; in the assay on CAKI-1 renal, 1.59 µM; in the assay with MALME-3M melanoma it was 2.12 µM.

Regarding `COc1ccc(-c2cc3c(N)ncnc3o2)cc1`, the GI50 in the assay on DU-145 prostate was 19.9 µM; in the assay on HL-60(TB) leukemia it was above 25 µM; in the assay on UACC-62 melanoma, 5.72 µM; in the assay with SF-539 CNS, above 25 µM; in the assay with HOP-92 NSCLC, 17.1 µM; in the assay on HCT-116 colon, above 25 µM. The GI50 is above 25 µM with BT-549 breast, above 25 µM in the assay on SK-MEL-28 melanoma, 17.6 µM in the assay with CAKI-1 renal and 15.5 µM in the assay on MALME-3M melanoma. For the same molecule, the TGI in the assay with DU-145 prostate, with HL-60(TB) leukemia, in the assay on UACC-62 melanoma, with SF-539 CNS, in the assay on HOP-92 NSCLC and with HCT-116 colon was above 25 µM throughout. Moreover, the TGI in the assay on BT-549 breast, in the assay on SK-MEL-28 melanoma, in the assay on CAKI-1 renal and in the assay on MALME-3M melanoma was above 25 µM throughout.

Regarding `CCCCCCCCC(=O)NCCN(CCN)C(=O)CCCCCCCC`, the TGI with DU-145 prostate was found to be 27.9 µM; in the assay on HL-60(TB) leukemia, 5.32 µM; in the assay with UACC-62 melanoma it was 21.9 µM; with SF-539 CNS, 15.3 µM; in the assay on HOP-92 NSCLC it was 37.1 µM; in the assay on HCT-116 colon it was 8.02 µM. The TGI worked out at 22.8 µM in the assay on BT-549 breast, 30.5 µM with SK-MEL-28 melanoma, 32.9 µM with CAKI-1 renal and 33.6 µM with MALME-3M melanoma.

As to `NC(N)=N/N=C/c1ccc(Br)cc1`, the GI50 in the assay with DU-145 prostate is 5.5 µM; with HL-60(TB) leukemia it was 2.5 µM; in the assay on UACC-62 melanoma it was 5.36 µM; with SF-539 CNS, 2.33 µM; in the assay on HOP-92 NSCLC, 5.78 µM; in the assay with HCT-116 colon it was 4.02 µM. Moreover, the GI50 in the assay with BT-549 breast is 5.64 µM; with SK-MEL-28 melanoma, 5.61 µM; in the assay on CAKI-1 renal it was 3.02 µM; in the assay with MALME-3M melanoma it was 10.1 µM. Further, the TGI is 22.1 µM with DU-145 prostate; above 100 µM with HL-60(TB) leukemia; 17.8 µM in the assay on UACC-62 melanoma; 6.35 µM in the assay with SF-539 CNS; 24 µM in the assay with HOP-92 NSCLC; 15.8 µM in the assay on HCT-116 colon. For the same molecule, the TGI with BT-549 breast was found to be 16.7 µM; in the assay with SK-MEL-28 melanoma it was 18.8 µM; with CAKI-1 renal, 15.2 µM; with MALME-3M melanoma, 22.7 µM.

In the case of `O=C1CC2OCC=C3CN4CCC56c7ccccc7N1C5C2C3CC46` (centres undefined) (tested in a mixture with another compound), the GI50 is above 50 µg/mL with DU-145 prostate; 0.103 µg/mL with HL-60(TB) leukemia; above 50 µg/mL in the assay on UACC-62 melanoma; above 50 µg/mL with SF-539 CNS; above 50 µg/mL with HOP-92 NSCLC; above 50 µg/mL in the assay with HCT-116 colon. Also, the GI50 in the assay with BT-549 breast, in the assay with SK-MEL-28 melanoma, in the assay with CAKI-1 renal and in the assay on MALME-3M melanoma was above 50 µg/mL each time. Moreover, the TGI in the assay on DU-145 prostate is above 50 µg/mL; in the assay on HL-60(TB) leukemia it was 0.216 µg/mL; in the assay on UACC-62 melanoma, above 50 µg/mL; with SF-539 CNS, above 50 µg/mL; in the assay with HOP-92 NSCLC it was above 50 µg/mL; in the assay with HCT-116 colon it was above 50 µg/mL. For the same molecule, the TGI in the assay on BT-549 breast, in the assay on SK-MEL-28 melanoma, in the assay with CAKI-1 renal and in the assay with MALME-3M melanoma was above 50 µg/mL throughout.

Source of the values: PubChem BioAssay (NCI).
